Assay results as given in patent US12396983B2, “Composition comprising rilmenidine compound as active ingredient for treatment of fragile X syndrome or related developmental disability” (NEUROVENTI, priority 2020, dated 2025).

Key:
[1] = tested on: Fmr1-deficient animal model; test: three-chamber test, sociability in fragile X syndrome animal model; assay type: in vivo; conditions: rilmenidine intraperitoneally (1 mg/kg / 50 ug/kg printed), 30 minutes after administration, FIG. 1
Experimental: Purchased a 5-week-old Fmr 1 knockout mouse (Jackson Laboratory, USA) weighing about 22 g to 24 g, and acclimatized to an environment with a temperature of 23±2° C. and humidity of 55±10% and a light-dark cycle of 12 hours while allowing them to freely consume water and feed. After breeding (Konkuk University Laboratory Animal Center), they were used for experiments. For all animals, wild-type (WT) with normal FMRP expression and male KO mice lacking FMRP (Fragile X mental retardation protein) expression (which induces Fragile X Syndrome (FXS)) were used. Dosing and experiments were performed according to the age of the week. Dosing was performed at the same time. Behavioral experiments were conducted 30 minutes after administration. It was divided into groups administered with 1 mg/kg each of rilmenidine (Sigma Aldrich) in FMRP expression-deficient knock-out (Knock-Out) mice, wild-type (Wild Type) mice, and 0.25 DMSO in FMRP expression-deficient knock-out mice (6 mice per group). For the drug administration group, rilmenidine was dissolved in 0.25% DMSO and then administered intraperitoneally at a dose of 50 ug/kg. Meanwhile, 0.25% DMSO was intraperitoneally administered to the control group. […] The time the test mouse explored each stimulus mouse was measured and expressed as %.

[2] = tested on: animal model treated with MK-801 in wild-type mice; test: pre-pulse suppression (startle response) test in MK-801 treated animal model; assay type: in vivo, mouse; conditions: wild-type mice treated with MK-801 and then rilmenidine intraperitoneally, FIG. 2
Experimental: The startle response was confirmed in an animal model treated with MK-801 in wild-type mice. Mice were divided into groups, and 0.9% physiological saline (saline solution), rilmenidine, or a positive control drug (aripiprazole) was intraperitoneally administered to each group. Then, sensorimotor gating was evaluated through a pre-wave suppression test (converted using Equation 1). […] Pre-pulse suppression (%)=100−[(startle response to pre-stimulus+stimulus)/(startle response to stimulus)]*100 [Equation 1] Confirmation of Cognitive Improvement Effect of Rilmenidine

[3] = tested on: animal model treated with MK-801 in wild-type mice; test: novel object recognition test in MK-801 treated animal model; assay type: in vivo, mouse; conditions: wild-type mice treated with MK-801 and then rilmenidine (0.3 mg/kg), test 24 hours after training, FIG. 3
Experimental: The cognitive improvement effect of rilmenidine was confirmed using an animal model treated with MK-801 in wild-type mice. The experiment was a novel object recognition test, where two identical objects were placed in the same location and trained, and 24 hours later, one identical object (familiar) and the other new object (novel) were put in, and the cognitive ability of the animal was tested by evaluating whether they could distinguish between familiar and new objects.

[4] = tested on: animal model lacking Cntnap2; test: three-chamber test, sociability index in Cntnap2-deficient autism animal model; assay type: in vivo, mouse; conditions: Cntnap2-deficient mice treated with rilmenidine, FIG. 4
Experimental: To confirm the therapeutic effect of rilmenidine on social deficits, one of the phenotypes of developmental disorders, a three-chamber test was performed using an animal model lacking Cntnap2. The sociability index of FIG. 4 represents a value obtained by dividing stranger (retention time for a mouse) by empty (retention time for an empty space).

[5] = tested on: animal model lacking Cntnap2; test: three-chamber test, social preference (novel vs familiar mouse) in Cntnap2-deficient autism animal model; assay type: in vivo; conditions: Cntnap2-deficient mice treated with rilmenidine, FIG. 5
Experimental: To confirm the therapeutic effect of rilmenidine on social deficits, one of the phenotypes of developmental disorders, a three-chamber test was performed using an animal model lacking Cntnap2. FIG. 5 is a result of evaluating whether or not the time spent with a novel mouse is longer than that of a familiar mouse after exploring a stimulus mouse (familiar) for 10 minutes in the experimental animal, and after adding a new stimulus mouse (novel) together for 10 minutes. In this case, the old mouse is called familiar, and the new mouse is called novel. […] Experimental results were expressed as a preference index by measuring the time the test mouse explores each mouse or the sniffing time to each mouse. The higher the preference index, the more time spent with the novel mouse than with the familiar mouse, or the more time spent sniffing with the novel mouse than with the familiar mouse. […] Through this, it was confirmed that rilmenidine treatment can improve sociability (FIG. 5).

SMILES: C1COC(NC(C2CC2)C2CC2)=N1 [rilmenidine, N-(dicyclopropylmethyl)-4,5-dihydro-1,3-oxazol-2-amine]
- time the test mouse explored novel vs familiar stimulus mouse (sociability) [1]: more time was spent with the novel mouse than with the familiar mouse
- pre-pulse suppression [2]: the reduced pre-pulse suppression was restored
- ability to distinguish novel object from familiar object (cognitive improvement) [3]: the ability to distinguish novel objects was improved
- sociability index: retention time for mouse (stranger) vs empty space [4]: the retention time for the mouse was longer than the retention time for the empty space
- preference index: sniffing time to novel mouse vs familiar mouse [5]: sniffed more
- preference index: time spent with novel mouse vs familiar mouse [5]: spent more time
